Data set [1] relates to HEK293. Kind of data set: cells. Conditions: Homo sapiens. Type of data set: functional, cell-based.
The subject of data set [2] is HEK293. Briefly: NOD1 signaling inhibitors, primary screen, cell-based, luminescence, uHTS (AID 1578). Type of data set: functional. Conditions: Homo sapiens.
For data set [3], the system named is HEK293. Kind of data set: cells. The note with it: Homo sapiens. Type of data set: functional, cell-based. The source holds these as a separate data set.
Data set [4] can be described thus: cytotoxicity in HEK-293T cells, dose response, cytotoxicity control for BCR NF-kB inhibitor project, luminescence, B-cell screen hits (AID 489021).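 Further: HEK-293T cells carrying an NF-kB luciferase reporter; cells exposed to compound for about 14 hours before viability readout.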 The data set is classed as functional, cell-based.
Data set [5] concerns HEK293. Briefly: NOD2 signaling inhibitors in MDP-stimulated cells, cell-based, uHTS, luminescence (AID 2001). The data set is classed as functional. Conditions: Homo sapiens.
The next data set addresses T1, Aminopeptidase N (Plasmodium falciparum FcB1/Columbia, UniProt O96935).
T1 sequence (O96935 whole entry): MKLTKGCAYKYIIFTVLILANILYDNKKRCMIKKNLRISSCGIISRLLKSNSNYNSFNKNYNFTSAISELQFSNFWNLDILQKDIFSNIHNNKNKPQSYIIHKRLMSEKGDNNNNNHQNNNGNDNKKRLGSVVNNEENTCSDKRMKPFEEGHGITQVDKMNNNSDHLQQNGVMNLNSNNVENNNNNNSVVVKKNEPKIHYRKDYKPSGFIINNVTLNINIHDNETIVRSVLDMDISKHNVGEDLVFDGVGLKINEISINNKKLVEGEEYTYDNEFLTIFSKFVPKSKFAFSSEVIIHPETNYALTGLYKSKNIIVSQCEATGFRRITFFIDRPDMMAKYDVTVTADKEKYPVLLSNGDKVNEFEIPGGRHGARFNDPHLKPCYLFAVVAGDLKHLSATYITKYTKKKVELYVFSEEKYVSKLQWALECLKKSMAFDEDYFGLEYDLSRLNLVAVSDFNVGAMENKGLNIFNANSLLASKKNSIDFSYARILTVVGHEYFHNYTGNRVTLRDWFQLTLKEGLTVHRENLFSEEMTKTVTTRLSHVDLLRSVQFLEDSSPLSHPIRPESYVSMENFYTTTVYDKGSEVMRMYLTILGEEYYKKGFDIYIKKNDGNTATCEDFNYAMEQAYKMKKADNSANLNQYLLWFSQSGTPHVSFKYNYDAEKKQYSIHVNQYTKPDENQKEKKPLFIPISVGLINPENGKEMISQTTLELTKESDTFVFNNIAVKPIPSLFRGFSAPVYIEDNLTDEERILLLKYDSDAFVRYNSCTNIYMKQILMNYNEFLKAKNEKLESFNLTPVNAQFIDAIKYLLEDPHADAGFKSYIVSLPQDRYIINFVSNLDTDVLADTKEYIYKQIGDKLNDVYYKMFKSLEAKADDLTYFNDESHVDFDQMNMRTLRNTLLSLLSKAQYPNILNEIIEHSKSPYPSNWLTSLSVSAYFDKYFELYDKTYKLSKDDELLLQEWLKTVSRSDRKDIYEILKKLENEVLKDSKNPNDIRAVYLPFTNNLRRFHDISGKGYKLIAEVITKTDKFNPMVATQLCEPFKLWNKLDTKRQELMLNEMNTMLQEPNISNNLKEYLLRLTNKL
Briefly: P. falciparum M1AAP inhibitors, biochemical, fluorogenic H-Leu-NHMec substrate, 1536-well (AID 1445). Further details: species or system Plasmodium falciparum 3D7, 3D7.

Another data set addresses Cytochrome P450 2C9 (Homo sapiens, UniProt P11712).
The target of a further data set is Cytochrome P450 2D6 (Homo sapiens, UniProt P10635).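 Further: CYP2D6 member of a cytochrome P450 panel assay.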
Cytochrome P450 2D6, sequence (P10635 whole entry): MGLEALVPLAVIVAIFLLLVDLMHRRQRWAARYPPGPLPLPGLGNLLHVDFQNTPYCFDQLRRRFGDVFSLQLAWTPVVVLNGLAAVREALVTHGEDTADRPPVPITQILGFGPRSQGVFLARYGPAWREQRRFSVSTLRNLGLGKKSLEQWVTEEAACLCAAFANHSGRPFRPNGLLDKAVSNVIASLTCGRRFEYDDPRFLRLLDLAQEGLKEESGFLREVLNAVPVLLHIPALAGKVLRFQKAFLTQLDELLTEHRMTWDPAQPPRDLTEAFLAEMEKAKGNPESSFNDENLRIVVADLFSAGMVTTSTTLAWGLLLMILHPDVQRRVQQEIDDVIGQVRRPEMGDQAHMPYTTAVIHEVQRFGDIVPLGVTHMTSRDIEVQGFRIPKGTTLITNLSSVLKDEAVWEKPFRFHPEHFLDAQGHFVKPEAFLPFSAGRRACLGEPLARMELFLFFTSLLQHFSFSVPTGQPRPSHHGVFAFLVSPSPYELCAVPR
The nature of data set [6]: inhibitors of SNCA 5'UTR-driven reporter translation, confirmation, H4 neuroglioma cells, luminescence (AID 1988). The data set is classed as functional, cell-based.
Data set [7] in a line: Luminescence Cell-Based Dose Response HTS to Identify Inhibitors of 5'UTR Stem-Loop Driven Prion Protein mRNA Translation in H4 Neuroglioblastoma Cells. [Related pubchem assays: 1827 (Project Summary), 1813 (Primary HTS)]. Type of data set: functional.
A short description of data set [8]: inhibitors of firefly luciferase expression or activity, dose response, H4 neuroglioma cells, luminescence (AID 1990). The data set is classed as functional, cell-based.
Data set [9] deals with HEK293. Kind of data set: inhibitors of LMP1-driven NF-kB reporter, dose response, cell-based, HEK293, luciferase, cherry-pick (AID 588343). The data set is classed as functional, Homo sapiens. Conditions: hek293.
The target in data set [10] is T2, Ubiquitin-conjugating enzyme E2 N (Homo sapiens, UniProt P61088).
T2 sequence (P61088 whole entry): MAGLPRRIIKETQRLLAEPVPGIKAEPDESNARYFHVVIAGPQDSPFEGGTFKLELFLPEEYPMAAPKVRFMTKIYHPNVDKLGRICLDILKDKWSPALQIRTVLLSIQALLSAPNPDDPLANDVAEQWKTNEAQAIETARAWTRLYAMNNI
Type of data set: functional.

The target in the next data set is T3, Bcl-2-related protein A1 (Mus musculus, UniProt Q07440).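 Further: confirmatory dose–response counterscreen on Bfl-1, used to check hits from a UBC13 polyubiquitin inhibitor campaign.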
T3 sequence (Q07440 whole entry): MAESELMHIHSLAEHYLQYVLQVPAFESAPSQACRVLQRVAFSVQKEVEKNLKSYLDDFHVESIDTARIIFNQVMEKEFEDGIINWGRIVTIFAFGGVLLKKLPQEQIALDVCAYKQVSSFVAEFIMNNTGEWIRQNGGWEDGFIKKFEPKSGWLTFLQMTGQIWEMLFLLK
The data set is classed as functional.

Data set [11] deals with T2, Ubiquitin-conjugating enzyme E2 N. The data set is classed as functional. This is another data set of the same source.
Data set [12] in a line: inhibitors of intracellular T. cruzi replication, confirmation, NIH3T3 host cells, beta-gal luminescence (AID 2044).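 Further: intracellular parasites grown in NIH/3T3 mouse fibroblasts as host cells; luminescent beta-galactosidase reporter signal from transgenic T. cruzi replicating inside host cells; inhibitors lower the luminescence signal.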 Type of data set: functional, cell-based.
Data set [13] in a line: cytotoxicity toward NIH3T3 fibroblasts, dose response, counter-screen, cell-based, ATP luminescence, mouse fibroblasts (AID 2010).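 Further: cells exposed to compound for about 90 hours before reading.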 Type of data set: functional.
A further data set concerns the target Cytochrome P450 2C19 (Homo sapiens, UniProt P33261). Kind of data set: Cytochrome panel assay with activity outcomes. Panel member name: p450-cyp2c19 Compounds with AC50 equal or less than 10 uM are considered active. Type of data set: functional.
Data set [14] has as its target T4, Alkaline phosphatase, tissue-nonspecific isozyme (Homo sapiens, UniProt P05186).
T4 sequence (P05186 whole entry): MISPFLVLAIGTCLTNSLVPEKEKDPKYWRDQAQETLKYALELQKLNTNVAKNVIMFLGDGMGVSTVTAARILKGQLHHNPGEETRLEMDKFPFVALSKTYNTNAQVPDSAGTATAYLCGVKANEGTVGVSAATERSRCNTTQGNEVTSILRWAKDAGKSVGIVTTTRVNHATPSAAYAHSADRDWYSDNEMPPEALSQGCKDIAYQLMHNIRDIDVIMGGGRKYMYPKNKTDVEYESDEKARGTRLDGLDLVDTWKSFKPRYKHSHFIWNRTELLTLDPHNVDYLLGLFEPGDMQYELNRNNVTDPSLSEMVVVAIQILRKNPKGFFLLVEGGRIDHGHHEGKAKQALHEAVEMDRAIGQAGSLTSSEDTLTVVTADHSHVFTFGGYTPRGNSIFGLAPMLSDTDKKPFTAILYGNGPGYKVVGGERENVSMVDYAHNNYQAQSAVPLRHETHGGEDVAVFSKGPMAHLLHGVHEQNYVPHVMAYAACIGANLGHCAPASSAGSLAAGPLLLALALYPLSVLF
Briefly: human TNAP enzyme inhibitors, SAR follow-up, biochemical, luminescent, dose response (AID 1056).

The target of data set [15] is Alkaline phosphatase, placental type (Homo sapiens, UniProt P05187). Briefly: PLAP enzyme inhibitors, confirmation, biochemical, luminescence (AID 1512). Type of data set: functional.
Alkaline phosphatase, placental type, sequence (P05187 whole entry): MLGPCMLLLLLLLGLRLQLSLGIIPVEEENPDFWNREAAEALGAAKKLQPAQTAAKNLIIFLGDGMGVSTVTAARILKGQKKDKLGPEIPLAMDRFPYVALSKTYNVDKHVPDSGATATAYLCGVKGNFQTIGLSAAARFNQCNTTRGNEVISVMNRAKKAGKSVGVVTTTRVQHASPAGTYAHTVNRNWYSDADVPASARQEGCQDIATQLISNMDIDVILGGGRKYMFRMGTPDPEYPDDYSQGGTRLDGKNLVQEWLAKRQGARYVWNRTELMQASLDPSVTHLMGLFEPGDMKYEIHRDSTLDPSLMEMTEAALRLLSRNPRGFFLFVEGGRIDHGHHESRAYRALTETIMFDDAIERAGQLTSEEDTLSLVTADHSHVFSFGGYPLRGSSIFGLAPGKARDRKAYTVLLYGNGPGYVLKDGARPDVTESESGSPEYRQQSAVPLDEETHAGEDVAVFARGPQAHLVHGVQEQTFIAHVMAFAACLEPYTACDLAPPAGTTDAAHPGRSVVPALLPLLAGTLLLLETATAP
Data set [16] addresses DNA dC->dU-editing enzyme APOBEC-3A (Homo sapiens, UniProt P31941). Kind of data set: Dose Response confirmation of small molecule APOBEC3A DNA Deaminase Inhibitors via a fluorescence-based single-stranded DNA deaminase assay. [Related pubchem assays (depositor defined):AID493011, AID493024]. The data set is classed as functional.
Data set [17] addresses DNA dC->dU-editing enzyme APOBEC-3G (Homo sapiens, UniProt Q9HC16). The data set is classed as functional.
The subject of the next data set is HT-1080. Briefly: cytotoxicity in HT1080 fibrosarcoma cells, cell-based, fluorescence readout (AID 620). Conditions: Homo sapiens. Type of data set: functional.
For data set [18], the target named is Luciferin 4-monooxygenase (Photinus pyralis, UniProt P08659). Briefly: Counter Screen for Luciferase-based Assay Positives. [Related pubchem assays: 620, 618, 411 ]. For orientation: A counterscreen serves to expose hits that act by an unwanted route or on another target.
Luciferin 4-monooxygenase, sequence (P08659 whole entry): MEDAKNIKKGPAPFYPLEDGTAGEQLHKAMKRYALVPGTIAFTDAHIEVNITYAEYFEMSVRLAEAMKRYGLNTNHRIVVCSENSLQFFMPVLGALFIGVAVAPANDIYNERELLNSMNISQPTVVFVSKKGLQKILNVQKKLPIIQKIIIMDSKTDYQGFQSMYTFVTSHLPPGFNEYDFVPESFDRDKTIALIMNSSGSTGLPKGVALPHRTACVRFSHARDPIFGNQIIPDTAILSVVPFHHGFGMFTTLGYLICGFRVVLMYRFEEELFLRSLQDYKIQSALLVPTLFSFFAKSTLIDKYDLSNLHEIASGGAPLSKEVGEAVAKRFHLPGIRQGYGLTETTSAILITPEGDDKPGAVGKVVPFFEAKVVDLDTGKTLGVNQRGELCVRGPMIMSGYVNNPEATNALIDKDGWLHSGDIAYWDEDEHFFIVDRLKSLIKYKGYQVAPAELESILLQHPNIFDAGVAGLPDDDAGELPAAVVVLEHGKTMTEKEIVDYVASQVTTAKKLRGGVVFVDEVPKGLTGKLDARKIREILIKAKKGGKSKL

Activity calls are given as the source filed them.

Results on 23 compounds are retold here after ChEMBL document CHEMBL1201862, “PubChem BioAssay data set” (2004).

DNA dC->dU-editing enzyme APOBEC-3G, sequence (Q9HC16 whole entry): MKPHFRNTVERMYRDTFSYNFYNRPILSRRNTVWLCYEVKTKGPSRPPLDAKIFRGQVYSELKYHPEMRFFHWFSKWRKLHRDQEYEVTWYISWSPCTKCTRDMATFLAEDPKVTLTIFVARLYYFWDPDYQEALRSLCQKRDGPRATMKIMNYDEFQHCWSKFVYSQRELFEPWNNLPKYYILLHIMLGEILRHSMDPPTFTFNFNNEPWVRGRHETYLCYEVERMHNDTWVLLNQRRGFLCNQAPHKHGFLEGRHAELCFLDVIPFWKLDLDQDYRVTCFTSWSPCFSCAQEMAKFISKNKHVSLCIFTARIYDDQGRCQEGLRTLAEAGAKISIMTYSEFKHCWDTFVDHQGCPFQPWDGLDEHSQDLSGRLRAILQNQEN
DNA dC->dU-editing enzyme APOBEC-3A, sequence (P31941 whole entry): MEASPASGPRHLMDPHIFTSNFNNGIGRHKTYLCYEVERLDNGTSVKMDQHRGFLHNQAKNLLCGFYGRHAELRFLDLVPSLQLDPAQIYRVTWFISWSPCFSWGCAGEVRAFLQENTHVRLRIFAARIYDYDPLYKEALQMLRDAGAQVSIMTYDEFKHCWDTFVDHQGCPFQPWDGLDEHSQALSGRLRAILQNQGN
Cytochrome P450 2C9, sequence (P11712 whole entry): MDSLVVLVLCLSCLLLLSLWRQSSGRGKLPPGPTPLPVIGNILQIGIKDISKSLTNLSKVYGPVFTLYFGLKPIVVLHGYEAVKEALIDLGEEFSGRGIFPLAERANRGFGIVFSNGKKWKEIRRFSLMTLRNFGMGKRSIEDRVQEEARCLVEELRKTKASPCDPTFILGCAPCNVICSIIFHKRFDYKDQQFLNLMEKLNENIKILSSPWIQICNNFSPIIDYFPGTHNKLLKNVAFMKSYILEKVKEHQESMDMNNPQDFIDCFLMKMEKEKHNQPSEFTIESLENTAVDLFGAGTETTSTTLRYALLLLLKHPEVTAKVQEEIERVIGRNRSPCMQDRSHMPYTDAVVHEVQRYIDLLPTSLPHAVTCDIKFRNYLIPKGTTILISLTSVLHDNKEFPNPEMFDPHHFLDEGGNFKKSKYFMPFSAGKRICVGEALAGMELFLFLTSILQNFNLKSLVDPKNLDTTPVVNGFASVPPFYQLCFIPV
Cytochrome P450 2C19, sequence (P33261 whole entry): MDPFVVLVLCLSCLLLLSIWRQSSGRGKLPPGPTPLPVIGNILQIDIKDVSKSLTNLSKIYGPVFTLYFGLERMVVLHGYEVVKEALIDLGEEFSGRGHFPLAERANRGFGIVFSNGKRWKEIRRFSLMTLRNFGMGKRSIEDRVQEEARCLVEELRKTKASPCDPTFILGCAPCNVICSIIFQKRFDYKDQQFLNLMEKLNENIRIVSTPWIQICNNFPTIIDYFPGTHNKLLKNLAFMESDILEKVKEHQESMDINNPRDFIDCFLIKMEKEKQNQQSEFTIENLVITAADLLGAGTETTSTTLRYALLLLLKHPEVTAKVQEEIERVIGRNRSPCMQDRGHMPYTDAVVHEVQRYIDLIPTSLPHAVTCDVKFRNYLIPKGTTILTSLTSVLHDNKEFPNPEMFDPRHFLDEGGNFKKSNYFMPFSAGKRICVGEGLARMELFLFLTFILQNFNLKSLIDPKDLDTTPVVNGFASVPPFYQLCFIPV

For the compound `Cc1cc(C)nc(Sc2ccc([N+](=O)[O-])cc2[N+](=O)[O-])n1`, the IC50 in the data set on HEK293 [1] was 6.2 µM (active); with HEK293 [3] it was > 20 µM (inactive); in [4], > 80 µM (inactive); in the data set with HEK293 [5], 14.3 µM (inactive). Further, the EC50 in the data set on HEK293 [2] is > 20 µM (inactive).
For `O=C(COC(=O)c1cc(S(=O)(=O)Nc2ccccc2Cl)ccc1O)Nc1nc2ccccc2s1`, on Aminopeptidase N, the half-maximal inhibitory concentration (IC50) was 44.4 µM (active).
As for `COCCNC(=O)COC(=O)/C=C/c1cnc2ccccc2n1`, the AC50 on Cytochrome P450 2C9 was 1.12 µM (inconclusive); on Cytochrome P450 2D6, “inconclusive”.
As to `COc1ccccc1/C=C1\SC(=S)N(CCC(=O)Nc2cc(C)on2)C1=O`, the EC50 was > 120 µM (not active) in data set [6], 27.8 µM (active) in data set [7] and 30 µM (active) in data set [8]. Moreover, the IC50 in data set [4] was > 80 µM (inactive).
On to `C[C@H](Br)CN(C[C@H](C)Br)c1ccc2c(c1)Cc1ccccc1-2`, for which the AC50 entry on Cytochrome P450 2D6 was “inconclusive”.
Regarding `CCN1CCN(Cc2ccc(NC(=O)c3ccc(C)c(NC(=O)c4ccno4)c3)cc2C(F)(F)F)CC1`, the IC50 in the data set with HEK293 [1] is > 20 µM (inactive); with HEK293 [3], > 20 µM (inactive); with HEK293 [5], 11.9 µM (inactive). Besides, in the data set with HEK293 [2], the EC50 is 7.63 µM (active). For the same compound, the half-maximal activity concentration (AC50) in the data set on HEK293 [9] is 0.0692 µM (active).
On to `O=C(Nc1ccc(F)c(Cl)c1)C1CCN(c2ncnc3c2nc2n3CCCCC2)CC1`, for which the IC50 is 8.53 µM (active) in [10], > 20 µM (inactive) at Bcl-2-related protein A1 and 9.53 µM (active) in data set [11].
In the case of `COc1ccc(-c2ccc(C(C)=O)cc2)cc1[C@H]1[C@H]2C=CC[C@@H](C)[C@@H]2C(=O)N1Cc1ccccc1`, the EC50 is 1.15 µM (active) in [12] and 18.9 µM (active) in [13]. In addition, the IC50 in data set [4] is > 80 µM (inactive).
On to `CC(C)CCC[C@@H](C)[C@@H]1CC[C@@H]2[C@H]3CC[C@H]4C[C@@H](N)CC[C@@]4(C)[C@@H]3CC[C@]21C`, for which the half-maximal activity concentration (AC50) result on Cytochrome P450 2C19 and on Cytochrome P450 2D6 was “inconclusive” in each case.
Turning to `O=C1c2cccc3cccc(c23)C(=O)N1CC1CCN(CC(O)COCc2ccc3c(c2)OCO3)CC1` (stereo not given), the IC50 in data set [10] is 3.25 µM (active); on Bcl-2-related protein A1, > 20 µM (inactive); in [11] it was 4.33 µM (active).
Turning to `O/N=C/c1cc(Cl)ccc1OCc1cccc2ccccc12`, the IC50 in data set [14] and in [15] was > 100 µM (inactive) throughout.
As to `CCN1C(NCCCCO)=N[C@@H](c2cccc(F)c2)C(C(=O)OC)=C1C`, the IC50 in data set [16] was 3.06 µM (active); in [17], 5.05 µM (active).
Turning to `CN1CCN(C(=O)C2CCN(c3ncnc4c3nc3n4CCCCC3)CC2)CC1`, the IC50 is 3.51 µM (active) in data set [10], > 20 µM (inactive) at Bcl-2-related protein A1 and 6.77 µM (active) in data set [11].
Regarding `Cc1c(CCC(=O)O)c(=O)oc2cc3occ(-c4ccccc4)c3cc12`, the 50% inhibitory concentration (IC50) on Aminopeptidase N was 26.7 µM (active).
Consider `Cc1ccc(C(=O)NC2CCN(CC(=O)Nc3cccc([N+](=O)[O-])c3)CC2)cc1`, for which the IC50 on Aminopeptidase N was 102 µM (active).
Turning to `O=C(CCCO)N/N=C/c1cc(Br)ccc1O`, on Aminopeptidase N, the half-maximal inhibitory concentration (IC50) is 21.7 µM (active).
Turning to `CCC(C(=O)NC1CCCC1)N(C(=O)c1snc(C(N)=O)c1N)c1ccc2c(c1)OCCO2` (stereo not given), the IC50 in [10] was 7.69 µM (active); on Bcl-2-related protein A1, > 20 µM (inactive); in [11], 5.82 µM (active).
Take `c1ccc2c(c1)nnn2CN1CCOCC1`: at Cytochrome P450 2D6, the AC50 entry is given as “inconclusive”.
In the case of `CCc1cc2c(CN3CCN(C)CC3)cc(=O)oc2cc1O`, at Aminopeptidase N, the IC50 is 47.7 µM (active).
As for `CC(=O)Nc1nnc(SCC(=O)NCCOc2ccccc2)s1`, the IC50 is 4.13 µM (active) in data set [16] and 5.12 µM (active) in data set [17].
Take `Cc1ccc(N(C(=O)c2snc(C(N)=O)c2N)C(C(=O)NC2CCCC2)c2ccco2)cc1` (stereo not given): the concentration for half-maximal inhibition (IC50) in data set [10] is 8.18 µM (active); at Bcl-2-related protein A1, > 20 µM (inactive); in data set [11], 13.3 µM (active).
As for `CCOc1ccc(-c2cc(CCCC(=O)NCCCOC)no2)cc1`, the EC50 with HT-1080 is > 50 µM (not active); in data set [8] it was 0.841 µM (active); in data set [18] it was > 100 µM (not active). Moreover, the IC50 in data set [4] is > 80 µM (inactive).
For the compound `Cc1cnn(CC(=O)c2ccc(O)c(O)c2)c1`, the values for the IC50 in [14] and in data set [15] were > 100 µM (inactive) and 2.13 µM (active), respectively.

The IC50 is the concentration at which inhibition is half-maximal. In general, EC50 refers to the concentration giving half of the maximal effect. The AC50 is the concentration giving half of the maximal activity seen.
